Assay results: the supplement of paper PMC6411743

What was measured:
guanosine triphosphate = compound: Nc1nc2c(ncn2[C@@H]2O[C@H](COP(=O)(O)OP(=O)(O)OP(=O)(O)O)[C@@H](O)[C@H]2O)c(=O)[nH]1 [guanosine triphosphate]; assay: pEC50 of GTP-induced change in protein thermal stability (2D-TPP)
In short: (§1)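 Crude Jurkat lysate was exposed to five concentrations, vehicle among them, for 10 min at room temperature, then heated for 3 min at 12 temperatures between 42 and 63.9 °C and treated with NP40 and benzonase for 60 min at 4 °C. Soluble protein remaining after ultracentrifugation was measured by TMT LC-MS/MS, and fold changes relative to vehicle at each temperature were median-normalised. pEC50 values come from dose-response fits made per replicate across adjacent temperature pairs, with hits called under permutation-based false discovery rate control. Three independent experiments were run.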

adenosine triphosphate = compound: Nc1ncnc2c1ncn2[C@@H]1O[C@H](COP(=O)(O)OP(=O)(O)OP(=O)(O)O)[C@@H](O)[C@H]1O [adenosine triphosphate]; assay: pEC50 of ATP-induced change in protein thermal stability (2D-TPP)
In short: as §1
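For pEC50 of ATP-induced change in protein thermal stability (2D-TPP) in this document: lysate dosed with Na-ATP at 0 0.005 0.05 0.5 and 2 mM.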

Chain of UniProt O15439 (O15439 whole entry): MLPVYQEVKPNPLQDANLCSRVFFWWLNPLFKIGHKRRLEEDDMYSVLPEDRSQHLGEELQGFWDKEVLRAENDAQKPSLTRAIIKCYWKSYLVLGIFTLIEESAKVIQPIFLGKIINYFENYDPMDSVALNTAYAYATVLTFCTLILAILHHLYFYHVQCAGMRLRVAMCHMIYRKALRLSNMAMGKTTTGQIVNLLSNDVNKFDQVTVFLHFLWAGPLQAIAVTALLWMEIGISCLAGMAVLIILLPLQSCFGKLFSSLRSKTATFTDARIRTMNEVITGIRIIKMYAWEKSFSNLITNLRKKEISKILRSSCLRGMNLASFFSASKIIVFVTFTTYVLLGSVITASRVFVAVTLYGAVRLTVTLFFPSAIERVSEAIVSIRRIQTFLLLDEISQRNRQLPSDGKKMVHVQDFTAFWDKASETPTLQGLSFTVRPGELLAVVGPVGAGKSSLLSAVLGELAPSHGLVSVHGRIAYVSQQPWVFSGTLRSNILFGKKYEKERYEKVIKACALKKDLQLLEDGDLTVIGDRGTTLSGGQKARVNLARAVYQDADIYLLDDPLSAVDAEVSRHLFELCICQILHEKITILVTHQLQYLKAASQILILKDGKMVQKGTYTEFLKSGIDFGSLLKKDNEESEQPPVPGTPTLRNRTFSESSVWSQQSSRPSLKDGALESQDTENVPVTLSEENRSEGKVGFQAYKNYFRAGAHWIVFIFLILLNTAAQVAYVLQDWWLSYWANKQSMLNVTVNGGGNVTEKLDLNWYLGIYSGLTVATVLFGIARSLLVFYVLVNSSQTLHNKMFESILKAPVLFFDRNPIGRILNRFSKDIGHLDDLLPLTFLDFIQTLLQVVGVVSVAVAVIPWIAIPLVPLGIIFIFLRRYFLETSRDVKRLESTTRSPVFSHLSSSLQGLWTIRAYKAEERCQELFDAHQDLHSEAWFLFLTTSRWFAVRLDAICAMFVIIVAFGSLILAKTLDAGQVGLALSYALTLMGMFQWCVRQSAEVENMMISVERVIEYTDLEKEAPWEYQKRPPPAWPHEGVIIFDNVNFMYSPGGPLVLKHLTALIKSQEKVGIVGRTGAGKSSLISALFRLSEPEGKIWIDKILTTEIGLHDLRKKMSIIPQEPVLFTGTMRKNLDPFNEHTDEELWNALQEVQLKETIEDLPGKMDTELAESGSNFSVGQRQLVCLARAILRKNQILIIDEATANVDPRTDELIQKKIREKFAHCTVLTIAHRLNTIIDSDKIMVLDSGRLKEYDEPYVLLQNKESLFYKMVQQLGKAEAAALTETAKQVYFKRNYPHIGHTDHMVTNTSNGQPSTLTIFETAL
Chain of UniProt Q08J23 (Q08J23 whole entry): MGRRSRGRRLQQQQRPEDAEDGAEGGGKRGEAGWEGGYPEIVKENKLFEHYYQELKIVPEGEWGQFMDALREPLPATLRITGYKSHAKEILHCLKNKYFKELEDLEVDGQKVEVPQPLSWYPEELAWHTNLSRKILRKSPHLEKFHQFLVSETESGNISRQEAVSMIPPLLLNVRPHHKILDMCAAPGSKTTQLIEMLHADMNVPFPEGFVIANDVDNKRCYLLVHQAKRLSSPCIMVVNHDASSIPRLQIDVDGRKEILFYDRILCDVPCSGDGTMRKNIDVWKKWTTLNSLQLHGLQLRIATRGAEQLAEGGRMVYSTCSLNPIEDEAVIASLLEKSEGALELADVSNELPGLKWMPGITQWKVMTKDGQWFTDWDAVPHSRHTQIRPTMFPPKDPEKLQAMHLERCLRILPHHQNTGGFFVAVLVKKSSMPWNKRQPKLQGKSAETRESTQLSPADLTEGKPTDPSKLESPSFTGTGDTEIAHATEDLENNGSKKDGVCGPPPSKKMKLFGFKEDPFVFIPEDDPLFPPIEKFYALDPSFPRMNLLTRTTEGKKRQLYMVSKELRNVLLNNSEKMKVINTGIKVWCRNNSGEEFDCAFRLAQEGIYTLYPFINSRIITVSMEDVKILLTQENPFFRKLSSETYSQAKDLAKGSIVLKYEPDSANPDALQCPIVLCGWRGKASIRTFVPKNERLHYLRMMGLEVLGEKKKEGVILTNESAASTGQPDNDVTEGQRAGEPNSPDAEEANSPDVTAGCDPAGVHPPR
Chain of UniProt Q9Y5Y2 (Q9Y5Y2 whole entry): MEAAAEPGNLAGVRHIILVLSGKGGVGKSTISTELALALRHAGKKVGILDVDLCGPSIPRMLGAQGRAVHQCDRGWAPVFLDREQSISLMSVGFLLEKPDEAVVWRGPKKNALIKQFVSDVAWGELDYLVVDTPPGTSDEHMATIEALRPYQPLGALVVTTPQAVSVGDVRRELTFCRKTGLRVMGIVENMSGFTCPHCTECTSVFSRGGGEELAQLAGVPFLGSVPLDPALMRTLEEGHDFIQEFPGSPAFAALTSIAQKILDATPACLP
Chain of UniProt P09543 (P09543 whole entry): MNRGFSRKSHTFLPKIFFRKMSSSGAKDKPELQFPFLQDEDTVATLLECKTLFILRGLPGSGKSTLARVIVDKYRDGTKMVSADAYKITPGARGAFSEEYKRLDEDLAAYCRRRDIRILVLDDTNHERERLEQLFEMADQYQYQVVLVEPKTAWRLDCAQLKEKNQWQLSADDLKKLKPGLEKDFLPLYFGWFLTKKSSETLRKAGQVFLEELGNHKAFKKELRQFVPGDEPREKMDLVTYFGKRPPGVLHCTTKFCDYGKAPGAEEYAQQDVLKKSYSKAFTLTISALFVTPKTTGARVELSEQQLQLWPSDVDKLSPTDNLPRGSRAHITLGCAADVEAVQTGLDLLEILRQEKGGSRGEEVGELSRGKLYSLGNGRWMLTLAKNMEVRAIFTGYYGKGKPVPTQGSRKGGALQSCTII
Chain of UniProt Q13418 (Q13418 whole entry): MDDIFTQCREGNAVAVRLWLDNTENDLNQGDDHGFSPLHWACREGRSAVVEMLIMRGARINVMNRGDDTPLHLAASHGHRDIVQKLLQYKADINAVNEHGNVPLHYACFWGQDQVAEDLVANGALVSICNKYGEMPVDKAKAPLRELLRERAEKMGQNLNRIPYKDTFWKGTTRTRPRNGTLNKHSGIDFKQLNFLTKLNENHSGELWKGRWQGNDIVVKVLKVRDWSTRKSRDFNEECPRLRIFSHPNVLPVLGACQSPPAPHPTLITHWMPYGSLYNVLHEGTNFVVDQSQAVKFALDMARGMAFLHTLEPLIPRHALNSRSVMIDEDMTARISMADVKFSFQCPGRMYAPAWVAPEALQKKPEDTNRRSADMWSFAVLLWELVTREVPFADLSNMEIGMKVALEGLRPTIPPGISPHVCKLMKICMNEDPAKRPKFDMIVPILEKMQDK
Chain of UniProt P67870 (P67870 whole entry): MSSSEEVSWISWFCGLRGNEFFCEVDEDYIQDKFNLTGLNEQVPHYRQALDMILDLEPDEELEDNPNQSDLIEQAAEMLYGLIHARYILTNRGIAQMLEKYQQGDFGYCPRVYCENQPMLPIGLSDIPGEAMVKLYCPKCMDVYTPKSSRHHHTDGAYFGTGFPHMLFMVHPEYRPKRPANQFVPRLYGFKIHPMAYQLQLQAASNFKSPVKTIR
Chain of UniProt Q96S44 (Q96S44 whole entry): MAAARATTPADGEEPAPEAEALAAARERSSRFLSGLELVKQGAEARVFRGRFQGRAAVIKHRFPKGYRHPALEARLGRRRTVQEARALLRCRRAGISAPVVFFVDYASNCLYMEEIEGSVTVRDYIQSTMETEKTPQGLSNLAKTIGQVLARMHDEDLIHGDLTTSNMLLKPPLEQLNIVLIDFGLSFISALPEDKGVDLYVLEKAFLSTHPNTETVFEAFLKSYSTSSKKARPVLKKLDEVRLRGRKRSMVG
Chain of UniProt P23258 (P23258 whole entry): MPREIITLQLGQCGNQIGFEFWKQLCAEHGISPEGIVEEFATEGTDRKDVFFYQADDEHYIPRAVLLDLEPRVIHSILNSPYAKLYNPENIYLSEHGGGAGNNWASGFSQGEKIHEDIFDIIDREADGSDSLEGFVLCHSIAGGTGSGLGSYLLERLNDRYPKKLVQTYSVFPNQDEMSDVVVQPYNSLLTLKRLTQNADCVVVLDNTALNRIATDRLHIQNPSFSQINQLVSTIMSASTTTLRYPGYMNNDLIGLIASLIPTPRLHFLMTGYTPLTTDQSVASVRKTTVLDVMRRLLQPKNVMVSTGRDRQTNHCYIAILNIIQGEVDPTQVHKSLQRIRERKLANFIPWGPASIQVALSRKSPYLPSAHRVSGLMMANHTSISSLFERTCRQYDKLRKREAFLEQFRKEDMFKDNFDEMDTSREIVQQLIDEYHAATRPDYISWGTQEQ
Chain of UniProt Q9Y679 (Q9Y679 whole entry): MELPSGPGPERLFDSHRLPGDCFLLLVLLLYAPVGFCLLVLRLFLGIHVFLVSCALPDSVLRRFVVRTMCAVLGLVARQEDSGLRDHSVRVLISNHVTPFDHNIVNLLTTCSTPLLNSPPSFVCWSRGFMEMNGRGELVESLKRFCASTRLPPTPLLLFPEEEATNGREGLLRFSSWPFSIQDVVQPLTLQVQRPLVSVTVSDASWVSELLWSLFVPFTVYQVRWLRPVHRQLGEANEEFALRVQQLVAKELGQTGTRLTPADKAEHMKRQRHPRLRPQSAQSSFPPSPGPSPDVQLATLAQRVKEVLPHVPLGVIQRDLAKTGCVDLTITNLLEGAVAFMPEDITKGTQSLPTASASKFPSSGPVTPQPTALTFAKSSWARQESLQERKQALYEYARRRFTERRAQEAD
Chain of UniProt P27707 (P27707 whole entry, looked up): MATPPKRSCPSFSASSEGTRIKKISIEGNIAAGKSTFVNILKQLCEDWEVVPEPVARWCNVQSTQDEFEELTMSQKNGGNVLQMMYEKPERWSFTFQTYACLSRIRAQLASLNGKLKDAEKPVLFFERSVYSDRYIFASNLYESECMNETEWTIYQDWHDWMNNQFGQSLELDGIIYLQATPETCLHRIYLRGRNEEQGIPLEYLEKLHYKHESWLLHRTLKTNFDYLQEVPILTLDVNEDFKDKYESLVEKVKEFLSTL

pEC50 (guanosine triphosphate)	pEC50 (adenosine triphosphate)	Target
4.47	3.55	RAB43 (effect direction: stabilized) (UniProt Q86YS6)
5	3.79	RAB4B (effect direction: stabilized) (UniProt P61018)
3.83	3.48	SUCLG1 (effect direction: stabilized) (UniProt P53597)
4.06	3.17	TUBG1 (effect direction: stabilized) (UniProt P23258)
3.94	3.41	ABCC4 (effect direction: stabilized) (UniProt O15439)
3.61	2.76	EFTUD2 (effect direction: stabilized) (UniProt Q15029)
4.37	4.22	ATP13A1 (effect direction: stabilized) (UniProt Q9HD20)
4.07	2.85	GMPS (effect direction: stabilized) (UniProt P49915)
3.95	3.4	RABL3 (effect direction: stabilized) (UniProt Q5HYI8)
< 3.3	3.42	ACSS1 (effect direction: stabilized) (UniProt Q9NUB1)
4.53	3.75	RAB21 (effect direction: stabilized) (UniProt Q9UL25)
3.98	4.05	MCM6 (effect direction: stabilized) (UniProt Q14566)
3.6	3.71	DYNC1LI1 (effect direction: stabilized) (UniProt Q9Y6G9)
4.17	3.37	ILK (effect direction: stabilized) (UniProt Q13418)
4.34	3.88	EHD1 (effect direction: stabilized) (UniProt Q9H4M9)
3.81	4.01	UniProt P08240 (effect direction: stabilized)
3.59	3.36	FAR1 (effect direction: stabilized) (UniProt Q8WVX9)
4.35	3.83	UniProt P61026 (effect direction: stabilized)
3.62	3.26	IMPDH2 (effect direction: stabilized) (UniProt P12268)
4.08	3.42	UniProt P62070 (effect direction: stabilized)

pEC50 (guanosine triphosphate)	pEC50 (adenosine triphosphate)	Target
3.49	3.37	RAD50 (effect direction: stabilized) (UniProt Q92878)
3.92	4.12	UniProt P19784 (effect direction: stabilized)
4.25	3.9	UniProt P61224 (effect direction: stabilized)
4.06	4.25	UniProt P17252 (effect direction: stabilized)
3.93	4.21	UniProt Q6XQN6 (effect direction: stabilized)
3.99	4.25	UniProt P61160 (effect direction: stabilized)
3.86	3.56	DDX46 (effect direction: stabilized) (UniProt Q7L014)
4.14	3.42	MCM7 (effect direction: stabilized) (UniProt P33993)
4.16	3.69	DYNC1LI2 (effect direction: stabilized) (UniProt O43237)
4.26	4.11	EEF1A1 (effect direction: stabilized) (UniProt P68104)
4.03	3.9	UniProt P59998 (effect direction: stabilized)
3.86	3.44	PRKCB (effect direction: stabilized) (UniProt P05771)
4.2	3.84	CSNK2B (effect direction: stabilized) (UniProt P67870)
4.32	3.7	DRG2 (effect direction: stabilized) (UniProt P55039)
< 3.3	4.07	BCS1L (effect direction: stabilized) (UniProt Q9Y276)
3.46	3.47	CCDC117 (effect direction: stabilized) (UniProt Q8IWD4)
3.78	3.79	UniProt P45985 (effect direction: stabilized)
3.82	3.27	AUP1 (effect direction: stabilized) (UniProt Q9Y679)
4.36	< 2.7	GNAI3 (effect direction: stabilized) (UniProt P08754)
3.9	3.91	ACSL3 (effect direction: stabilized) (UniProt O95573)

pEC50 (guanosine triphosphate)	pEC50 (adenosine triphosphate)	Target
3.91	3.58	CNP (effect direction: stabilized) (UniProt P09543)
3.83	4.06	ARPC2 (effect direction: stabilized) (UniProt O15144)
3.58	3.46	TP53RK (effect direction: stabilized) (UniProt Q96S44)
3.82	3.2	GMPPB (effect direction: stabilized) (UniProt Q9Y5P6)
3.48	3.26	TBRG4 (effect direction: stabilized) (UniProt Q969Z0)
3.87	< 2.7	NSUN2 (effect direction: stabilized) (UniProt Q08J23)
3.93	3.9	DHX15 (effect direction: stabilized) (UniProt O43143)
4.01	< 2.7	GSPT1 (effect direction: stabilized) (UniProt P15170)
3.54	3.4	PFKL (effect direction: stabilized) (UniProt P17858)
3.65	3.07	CCT4 (effect direction: stabilized) (UniProt P50991)
4.39	3.56	RAB2A (effect direction: stabilized) (UniProt P61019)
4.27	3.93	RAB8B (effect direction: stabilized) (UniProt Q92930)
3.55	4.13	HARS2 (effect direction: stabilized) (UniProt P49590)
4.71	3.41	NUBP2 (effect direction: stabilized) (UniProt Q9Y5Y2)
3.83	3.54	HSPA4L (effect direction: stabilized) (UniProt O95757)
3.68	2.89	TNPO1 (effect direction: stabilized) (UniProt Q92973)
3.73	3.19	DCK (effect direction: stabilized) (UniProt P27707)
3.83	4.25	ARPC1B (effect direction: stabilized) (UniProt O15143)
